From paper PMC4440444 (Theranostics, 2015)
Read-outs that look alike come from different tables or passages of the source.

System: glioma
Type: in vivo, human
Conditions: for T/NTmax (maximum target to non-target ratio): brain PET/CT; for SUVmax in glioma: brain PET/CT before surgery

## ^18F-FDG
Eight glioma patients
  T/NTmax in glioma, mean ± SD: 0.86 ± 0.41
Eight glioma patients, range
  SUVmax in glioma tissues, range: 3.50-12.27
  T/NTmax in glioma, range: 0.35-1.59
Patient No. 1, WHO grade II
  T/NTmax (maximum target to non-target ratio): 0.72
  SUVmax in glioma: 7.40
Patient No. 2, WHO grade II
  T/NTmax (maximum target to non-target ratio): 0.35
  SUVmax in glioma: 3.50
Patient No. 3, WHO grade III
  T/NTmax (maximum target to non-target ratio): 0.61
  SUVmax in glioma: 7.27
Patient No. 4, WHO grade IV
  T/NTmax (maximum target to non-target ratio): 0.80
  SUVmax in glioma: 12.27
Patient No. 5, WHO grade IV
  T/NTmax (maximum target to non-target ratio): 0.72
  SUVmax in glioma: 5.76
Patient No. 6, WHO grade IV
  T/NTmax (maximum target to non-target ratio): 0.78
  SUVmax in glioma: 9.87
Patient No. 7, WHO grade IV
  SUVmax in glioma: 8.47
Patient No. 8, WHO grade IV
  T/NTmax (maximum target to non-target ratio): 1.59
  SUVmax in glioma: 4.20
